Test results: patent US10173969B2, “Production of aniline via anthranilate” (Covestro Deutschland AG, priority 2014, dated 2019)

Legend:
[1] = Solubility of ammonium anthranilate in buffer solution; assay type: physicochemical; conditions: AA buffer solution with NH4OH added
Description: (§1) In this experiment, the kinetics of the thermal decarboxylation of step b) of the method according to the invention was studied. […] In this case it was possible to decarboxylate anthranilate ion to aniline (ANL). AA, or o-aminobenzoate, respectively was either provided biologically by a recombinant microbial host as described in Example 1, or it was provided chemically, e.g. it was commercially obtained, e.g. from Sigma Aldrich, catalog no. A89855.
(§2) A buffer solution containing (NH4)2SO4 (20 g/L), Na2HPO4 (1 g/L) and KH2PO4 (1 g/L) in distilled water was prepared. Then AA 10 wt % was suspended in this solution. NH4OH solution (28-30% NH3) was added dropwise into this suspension until a clear yellow solution was formed. The pH of this ammonium anthranilate (NH4AA) solution was around 7. The ammonium anthranilate (3 wt %) solution was also prepared using this method.

[2] = Kinetics of thermal decarboxylation in aqueous buffer solution without catalyst; assay type: physicochemical; conditions: for k (rate coefficient of decarboxylation) / n (order of reaction of decarboxylation): buffer solution, no catalyst
Description: as §1, §2
80 mL of each of the above solutions was transferred into an autoclave 160 mL and heated to 160° C. or 180° C. and samples were taken at different time intervals to analyse the rate of aniline (ANL) formation.
Decarboxylation of AA 0.5 wt % and NH4AA 3 wt % in aqueous buffer solution was performed at 160° C. without using any catalyst. […] The kinetic model was established using the general reaction rate formula as below and considering the experimental data to calculate the optimized k and n parameters which are the rate coefficient and the order of reaction, respectively.
The kinetics of NH4AA 10 wt % decarboxylation at 160° C. and 180° C. was also studied using experimental data and a simulating model.

[3] = reaction temperature 160 °C, listed as NH4AA 10% in buffer solution

Row | SMILES | solubility [1] | rate coefficient at 180 °C relative to that at 160 °C ([2]; NH4AA 10 wt %) [times] | k (rate coefficient of decarboxylation) ([2]; reaction temperature 160 °C) [h⁻¹] | n (order of reaction of decarboxylation) ([2]; reaction temperature 160 °C) | k (rate coefficient of decarboxylation) [2, 3] [h⁻¹] | n (order of reaction of decarboxylation) [2, 3] | k (rate coefficient of decarboxylation) ([2]; reaction temperature 180 °C) [h⁻¹] | n (order of reaction of decarboxylation) ([2]; reaction temperature 180 °C) | rate coefficient (k) relative to that of NH4AA 3 wt % ([2]; 160 °C, decarboxylation in water) [times]
1 | N.Nc1ccccc1C(=O)O [ammonium anthranilate] | up to 10% |  |  |  |  |  |  |  | 
2 | N.Nc1ccccc1C(=O)O [NH4AA 3% in buffer solution, ammonium anthranilate] |  | 36 | 0.00755 | 0.8706 | 0.000713 | 1.2758 | 0.026 | 0.9793 | 
3 | Nc1ccccc1C(=O)O [AA 0.5% in buffer solution, anthranilic acid] |  |  | 0.0519 | 0.9207 |  |  |  |  | 6.8
